The text below walks through data of patent US20110071150A1 (priority 2009, published 2011).

For the assay, the system named is Jurkat IL-2 Production. The experiment in a line: Jurkat IL-2 Production Assay. In kind it is cell-based. Particulars: Homo sapiens, Jurkat cell (ATCC), 18-20 h incubation, PHA 5 μg/mL with 1% FBS, or PMA/Ionomycin with 30% FBS (table does not say which). Here is the method: Jurkat IL-2 Production Assay
Cell: Jurkat cell (ATCC) was grown in RPMI 1640 with 10% FBS and 1% penicillin/streptomycin. The cell density was kept at 1.2-1.8×10^6/mL in culture flask before seeding into culture plate, and the cell density in the plate was 0.5×10^6/[…]/well.
Culture media: RPMI 1640 with 1% FBS or 30% FBS for high serum assay.
Test compound: serial dilution was done in 100% DMSO, and intermediate dilution was done with RPMI 1640 medium with 1% FBS. The DMSO final concentration in culture well was 0.25%.
Stimulant: PHA (Sigma#L9017-10MG) was used for the assay with 1% FBS in culture medium, and added after 10 minutes exposure of cell to compound/DMSO. The PHA final concentration in culture well was 5 μg/mL. PMA (Sigma# P-8139 5MG)/Ionomycin (Sigma# 10634-5MG) was used for the assay with 30% FBS in culture medium, and added at same time point as the 1% FBS culture assay. The final concentration of PMA was 50 ng/mL, and Ionomycin final concentration was 500 ng/mL.
Incubation: at 37° C. with 5% CO2 and 95% humidity for 18 h˜20 h.
IC50: IC50 was calculated with the data analysis software XLfit4, General Pharmacology model 251.
In turn, `Cc1cc(-c2nnco2)ccc1-c1ccc2[nH]c(-c3c(F)cccc3Cl)cc2c1` [Example 115, 2-(2-Chloro-6-fluoro-phenyl)-5-(2-methyl-4-[1,3,4]oxadiazol-2-yl-phenyl)-1H-indole] displayed an IC50 of 38 nM. This lies in the double-digit nanomolar range.

For the compound `Cc1cc(C#N)ccc1-c1ccc2[nH]c(-c3cccc(C#N)c3F)cc2c1` [Example 134, 4-[2-(2-Fluoro-3-cyano-phenyl)-1H-indol-5-yl]-3-methyl-benzonitrile], the IC50 worked out at 163 nM. This IC50 is about 4.3-fold higher than that of the compound before.

In turn, `CCn1nc(-c2cnccn2)cc1-c1ccc2[nH]c(-c3c(F)cccc3F)cc2c1` [Example 204, 2-(2,6-difluorophenyl)-5-(1-ethyl-3-(pyrazin-2-yl)-1H-pyrazol-5-yl)-1H-indole] came in with an IC50 of 63 nM.

The compound `Cc1cc(S(=O)(=O)N2CCOCC2)ccc1-c1ccc2[nH]c(-c3c(F)cccc3Cl)cc2c1` [Example 169, 4-(4-(2-(2-chloro-6-fluorophenyl)-1H-indol-5-yl)-3-methylphenylsulfonyl)morpholine] came in with a half-maximal inhibitory concentration (IC50) of 117 nM.

Consider `Cc1sc(-c2cncnc2)nc1-c1ccc2[nH]c(-c3c(F)cccc3Cl)cc2c1` [Example 177, 2-(2-Chloro-6-fluoro-phenyl)-5-(5-methyl-2-pyrimidin-5-yl-thiazol-4-yl)-1H-indole], for which the IC50 amounted to 82 nM.

In turn, `Cc1cc(C#N)ccc1-c1ccc2[nH]c(-c3cc(C#N)ccc3Cl)cc2c1` [Example 138, 4-(2-(2-Chloro-5-cyanophenyl)-1H-indol-5-yl)-3-methylbenzonitrile] gave an IC50 of 101 nM. This IC50 and that of the compound before are within 1.5-fold of each other.

As to `CCn1nc(C(F)(F)F)cc1-c1ccc2[nH]c(-c3ccncc3C)cc2c1` [Example 189, 5-(1-ethyl-3-(trifluoromethyl)-1H-pyrazol-5-yl)-2-(3-methylpyridin-4-yl)-1H-indole], the IC50 is 76 nM.

Take `Cc1cc(C#N)ccc1-c1ccc2[nH]c(-c3ccc(F)cc3F)cc2c1` [Example 141, 4-(2-(2,4-difluorophenyl)-1H-indol-5-yl)-3-methylbenzonitrile]: the midpoint of inhibition, the IC50, lay at 660 nM.

In turn, `COc1nccc(-c2cc3cc(-c4ccc(C#N)cc4C)ccc3[nH]2)c1Cl` [Example 140, 4-(2-(3-chloro-2-methoxypyridin-4-yl)-1H-indol-5-yl)-3-methylbenzonitrile] gave an IC50 of 142 nM.

In turn, `CCn1nc(-c2cccnc2)cc1-c1ccc2[nH]c(-c3c(F)cccc3F)cc2c1` [Example 20, 2-(2,6-Difluoro-phenyl)-5-(2-ethyl-5-pyridin-3-yl-2H-pyrazol-3-yl)-1H-indole] displayed an IC50 of 101 nM.

The compound `CNS(=O)(=O)c1ccc(-c2ccc3[nH]c(-c4c(F)cccc4Cl)cc3c2)c(C)c1` [Example 168, 4-(2-(2-chloro-6-fluorophenyl)-1H-indol-5-yl)-N,3-dimethylbenzenesulfonamide] returned an IC50 of 44 nM.

`Cn1nc(C(F)(F)F)cc1-c1ccc2[nH]c(-c3ccccc3Cl)cc2c1` [Example 59, 2-(2-Chloro-phenyl)-5-(2-methyl-5-trifluoromethyl-2H-pyrazol-3-yl)-1H-indole] returned an IC50 of 105 nM.

As for `CCn1nc(C(F)(F)F)cc1-c1ccc2[nH]c(-c3ccncc3F)cc2c1` [Example 192, 5-(1-ethyl-3-(trifluoromethyl)-1H-pyrazol-5-yl)-2-(3-fluoropyridin-4-yl)-1H-indole], the IC50 is 149 nM. This IC50 and that of the compound before are within 1.5-fold of each other.

For `Cc1sc(-c2cccnc2)nc1-c1ccc2[nH]c(-c3ccccc3Cl)cc2c1` [Example 12, 2-(2-Chloro-phenyl)-5-(5-methyl-2-pyridin-3-yl-thiazol-4-yl)-1H-indole], the IC50 came to 86 nM. This IC50 is about 1.7-fold lower than that of the compound before.

Regarding `CCc1sc(-c2cccnc2)nc1-c1ccc2[nH]c(-c3c(F)cccc3Cl)cc2c1` [Example 175, 4-[2-(2-chloro-6-fluorophenyl)-1H-indol-5-yl]-5-ethyl-2-(pyridin-3-yl)thiazole], half-maximal inhibition (IC50) required 11 nM.

`Cc1cc(C#N)ncc1-c1ccc2[nH]c(-c3c(F)cccc3Cl)cc2c1` [Example 162, 5-(2-(2-chloro-6-fluorophenyl)-1H-indol-5-yl)-4-methylpicolinonitrile] yielded an IC50 of 34 nM. This IC50 lies about 3.1-fold higher than the previous one.

In the case of `Cc1cc(Cl)ncc1-c1ccc2[nH]c(-c3c(F)cccc3Cl)cc2c1` [Example 160, 2-(2-Chloro-6-fluoro-phenyl)-5-(6-chloro-4-methyl-pyridin-3-yl)-1H-indole], the IC50 was 18 nM.

On to `CCn1nc(C(F)(F)F)cc1-c1ccc2[nH]c(C3CCCCC3)cc2c1` [Example 196, 2-cyclohexyl-5-(1-ethyl-3-(trifluoromethyl)-1H-pyrazol-5-yl)-1H-indole], for which half-maximal inhibition (IC50) required 24 nM. The IC50 values of the last two compounds are within 1.5-fold of each other.

`Cn1nc(-c2ncco2)cc1-c1ccc2[nH]c(-c3c(F)cccc3F)cc2c1` [Example 110, 2-(2,6-Difluoro-phenyl)-5-(2-methyl-5-oxazol-2-yl-2H-pyrazol-3-yl)-1H-indole] came in with an IC50 of 190 nM.

Compound `Cc1cc(C#N)ccc1-c1ccc2[nH]c(-c3ccncc3C)cc2c1` [Example 145, methyl-4-(2-(3-methylpyridin-4-yl)-1H-indol-5-yl)benzonitrile] came in with an IC50 of 89 nM.

Turning to `CCn1nc(C(F)(F)F)cc1-c1ccc2[nH]c(C3CCOCC3)cc2c1` [Example 198, 5-(1-ethyl-3-(trifluoromethyl)-1H-pyrazol-5-yl)-2-(tetrahydro-2H-pyran-4-yl)-1H-indole], the IC50 was determined as 95 nM.

For the compound `Cn1nc(C(F)(F)F)cc1-c1ccc2[nH]c(-c3ccccc3F)cc2c1` [Example 14, 2-(2-Fluoro-phenyl)-5-(2-methyl-5-trifluoromethyl-2H-pyrazol-3-yl)-1H-indole], the IC50 amounted to 337 nM.

`CN(C)S(=O)(=O)c1ccc(-c2ccc3[nH]c(-c4c(F)cccc4F)cc3c2)c(C(F)(F)F)c1` [Example 97, 4-[2-(2,6-Difluoro-phenyl)-1H-indol-5-yl]-N,N-dimethyl-3-trifluoromethyl-benzenesulfonamide] came in with an IC50 of 72 nM.

Compound `COc1cc(-c2ncco2)ccc1-c1ccc2[nH]c(-c3c(F)cccc3F)cc2c1` [Example 103, 2-(2,6-Difluoro-phenyl)-5-(2-methoxy-4-oxazol-2-yl-phenyl)-1H-indole] gave an IC50 of 176 nM.

With `COc1ccc(-c2ccc3[nH]c(-c4c(F)cccc4Cl)cc3c2)c(C)n1` [Example 123, 2-(2-Chloro-6-fluoro-phenyl)-5-(6-methoxy-2-methyl-pyridin-3-yl)-1H-indole], the midpoint of inhibition, the IC50, lay at 448 nM.

Regarding `Cn1nc(C(F)(F)F)cc1-c1ccc2[nH]c(-c3c(F)cccc3Cl)cc2c1` [Example 48, 2-(2-Chloro-6-fluoro-phenyl)-5-(2-methyl-5-trifluoromethyl-2H-pyrazol-3-yl)-1H-indole], the IC50 is 12 nM.

For `Cn1nc(-c2cccnc2)cc1-c1ccc2[nH]c(-c3cc(Cl)ccc3Cl)cc2c1` [Example 87, 2-(2,5-Dichloro-phenyl)-5-(2-methyl-5-pyridin-3-yl-2H-pyrazol-3-yl)-1H-indole], the 50% inhibitory concentration (IC50) stood at 135 nM.

Take `Cc1cc(C#N)ccc1-c1ccc2[nH]c(-c3c(F)cccc3F)cc2c1` [Example 27, 4-[2-(2,6-Difluoro-phenyl)-1H-indol-5-yl]-3-methyl-benzonitrile]: the IC50 stood at 97 nM.

`Cn1nc(-c2ccccn2)nc1-c1ccc2[nH]c(-c3c(F)cccc3Cl)cc2c1` [Example 184, 2-(2-Chloro-6-fluoro-phenyl)-5-(2-methyl-5-pyridin-2-yl-2H-[1,2,4]-triazol-3-yl)-1H-indole] showed an IC50 of 148 nM.

In the case of `Cc1sc(-c2ccccn2)nc1-c1ccc2[nH]c(-c3ccc(F)cc3Cl)cc2c1` [Example 57, 2-(2-Chloro-4-fluoro-phenyl)-5-(5-methyl-2-pyridin-2-yl-thiazol-4-yl)-1H-indole], the IC50 was 301 nM. This IC50 is about 2-fold higher than that of the compound before.

The compound `Cc1cc(C#N)ccc1-c1ccc2[nH]c(-c3ccc(C#N)cc3C)cc2c1` [Example 137, 4-(2-(4-Cyano-2-methylphenyl)-1H-indol-5-yl)-3-methylbenzonitrile] showed an IC50 of 132 nM.

Turning to `Cn1nc(C(F)(F)F)cc1-c1ccc2[nH]c(-c3ccc(F)cc3Cl)cc2c1` [Example 35, 2-(2-Chloro-4-fluoro-phenyl)-5-(2-methyl-5-trifluoromethyl-2H-pyrazol-3-yl)-1H-indole], the IC50 is 116 nM.

The compound `Cc1cc(C(F)(F)F)ccc1-c1ccc2[nH]c(-c3c(F)cccc3F)cc2c1` [Example 32, 2-(2,6-Difluoro-phenyl)-5-(2-methyl-4-trifluoromethyl-phenyl)-1H-indole] gave an IC50 of 71 nM. This IC50 is about 1.6-fold lower than that of the compound before.

`COCCOc1cc(C)c(-c2ccc3[nH]c(-c4c(F)cccc4Cl)cc3c2)cn1` [Example 163, 2-(2-chloro-6-fluorophenyl)-5-(6-(2-methoxyethoxy)-4-methylpyridin-3-yl)-1H-indole]: the IC50 came to 108 nM.

Turning to `Cc1sc(-c2cccnc2)nc1-c1ccc2[nH]c(-c3c(F)cccc3F)cc2c1` [Example 13, 2-(2,6-Difluoro-phenyl)-5-(5-methyl-2-pyridin-3-yl-thiazol-4-yl)-1H-indole], 66 nM corresponded to half-maximal inhibition (IC50).

In turn, `Cc1sc(-c2ccncc2)nc1-c1ccc2[nH]c(-c3ccccc3Cl)cc2c1` [Example 22, 2-(2-Chloro-phenyl)-5-(5-methyl-2-pyridin-4-yl-thiazol-4-yl)-1H-indole] yielded an IC50 of 150 nM.

For the compound `Cc1sc(-c2cccnc2)nc1-c1ccc2[nH]c(-c3ccccc3F)cc2c1` [Example 11, 2-(2-Fluoro-phenyl)-5-(5-methyl-2-pyridin-3-yl-thiazol-4-yl)-1H-indole], the IC50 was 169 nM.

A word on the IC50: it is the concentration at which inhibition is half-maximal. Higher therefore signals weaker potency in that assay.
